In brackets after ≈: the same amount, converted by molar mass. Read-outs that look alike come from different tables or passages of the source. One block for each compound: values may come before it.
Key:
[1] = Solubility of crystal forms; format: physicochemical; details: thermodynamic from solid
From the text: In various embodiments, the compositions of the present inventions use new crystalline forms of enantiomeric amisulpride, Form A and Form A′. […] It is to be understood that upon dissolution of the compound it is no longer of a crystalline form, thus one of ordinary skill in the art will understand that the specific rotation in Table 7 refers to that of the non-crystalline compound.

[2] = Dynamic vapor sorption (DVS) water sorption isotherm; format: physicochemical; details: for maximum mass change in water sorption isotherms: 25° C., scanned over 0 to 95% relative humidity; for Change Mass: FIG. 8D
From the text: In various embodiments, the hygroscopicity of crystal forms of racemic amisulpride, enantiomeric amisulpride, and enantiomeric amisulpride solvates are characterized by dynamic vapor sorption (DVS). DVS is a gravimetric technique that measures how much of a solvent is absorbed by a sample by varying the vapor concentration surrounding the sample (e.g., relative humidity) and measuring the change in mass. In the present application, DVS is used to generate water sorption isotherms, which represent the equilibrium amount of vapor sorbed as a function of steady state relative vapor pressure at a constant temperature.

rat = experiment: Forced Swim test; format: in vivo
Experimental: The Forced Swim test (FST) is an indicator of the antidepressant-like activity of a test compound. The rat will swim before “giving up” and becoming immobile. A compound with antidepressant-like activity will decrease the time the rat is immobile.
The animals (n=90) were divided into five groups. […] In the training session, each animal was gently placed into the plastic cylinder containing 5.8 L of water set at 25±1° C. Fifteen minutes after the beginning of the training session, the animal was removed from the water. The dosing solutions were administered 15 minutes after finishing of the training.
The swim test was performed for 5 minutes in the same manner as the training session. In the swim test, the behavior of each animal was horizontally recorded using a video camera. After the swim test, animals were immediately sacrificed by inhalation of carbon dioxide.
The swim movies were handled in a blind manner to ensure that the person who measured the immobility time had no information on the treatment. An animal was judged to be immobile whenever it remained floating in the water without moving its body or forepaws except for the slight movement to maintain its posture. The total time for which the animal remained immobile was defined as the immobility time. An observer blinded to the doses measured the immobility times. The immobility time of each animal was measured to one decimal place and rounded to a whole number. Immobility time was expressed in units of seconds. In each series the means of immobility time were calculated and rounded to a whole number using. The mean and standard error (SE) for each group were calculated using the data obtained from three experimental series and rounded to a whole number. All results are represented as the mean±SE.
The data of imipramine were analyzed using t-test with a two-sided significance level of 5% (p<0.05).

[3] = cited from earlier work
[4] = Plasma (S)-amisulpride levels during the PET study; format: in vivo; details: human, single oral solution 25-200 mg
Experimental: Plasma samples were collected throughout the course of the PET scan session and were analyzed for (S)-amisulpride levels.

[5] = 0.05 M acetate buffer, aqueous buffer, solution pH 4.5, read-out: Solubility, 0.05 M Acetate Buffer
[6] = acetone/MtBE 1:4, organic solvent or mixture, read-out: Solubility, Acetone/MtBE 1:4
[7] = acetone/MtBE 1:9, organic solvent or mixture, read-out: Solubility, Acetone/MtBE 1:9
[8] = ethyl acetate, organic solvent or mixture, read-out: Solubility, Ethyl Acetate
[9] = simulated gastric fluid (no enzyme), pH 1.1, simulated gastric fluid, pH adjusted to 1.1 (Form A), 1.2 (Form A′), read-out: Solubility, Simulated Gastric Fluid (no enzyme)
[10] = simulated intestinal fluid (no enzyme), pH 6.7, fassgf or other biorelevant, pH adjusted to 6.7 (Form A), 6.9 (Form A′), read-out: Solubility, Simulated Intestinal Fluid (no enzyme)
[11] = water, pH 10.2, water, read-out: Solubility, Water

SMILES: CCN1CCC[C@@H]1CNC(=O)c1cc(S(=O)(=O)CC)c(N)cc1OC [(R)-amisulpride Form A, R-4-Amino-N-[(1-ethyl-2-pyrrolidinyl)methyl]-5-(ethylsulfonyl)-2-methoxybenzamide]
solubility [1, 5]: > 100000 µg/mL | solubility [1, 6]: 8000 µg/mL (≈ 21.7 mM) | solubility [1, 7]: 2000 µg/mL (≈ 5.41 mM) | solubility [1, 8]: 3900 µg/mL (≈ 10.6 mM) | solubility [1, 9]: > 100000 µg/mL | solubility [1, 10]: > 100000 µg/mL | solubility [1, 11]: 2000 µg/mL (≈ 5.41 mM)

SMILES: CCN1CCCC1CNC(=O)c1cc(S(=O)(=O)CC)c(N)cc1OC.O=C(O)C(O)C(O)C(=O)O [(S)-amisulpride D-tartrate, reference compound]
maximum mass change in water sorption isotherms [2]: 52±9%

SMILES: CN(C)CCCN1c2ccccc2CCc2ccccc21 [Imipramine, imipramine]
immobility time (rat; 10 mg/kg i.p. at 24, 5 and 1 h before swim test, mean ± SE, vehicle 168±12): 105 ± 15 s | shortening of immobility time (rat; 10 mg/kg i.p., in all series, vs vehicle): more than 20%

SMILES: OCCOCCN1CCN(C2=Nc3ccccc3Sc3ccccc32)CC1 [quetiapine]
elimination half-life ([3]; literature (Delaney and Nemeroff 2001)): about 7 hours

SMILES: CCN1CCCC1CNC(=O)c1cc(S(=O)(=O)CC)c(N)cc1OC (racemic) [racemic amisulpride, 4-amino-N-[(1-ethylpyrrolidin-2-yl)methyl]-5-ethylsulfonyl-2-methoxy-benzamide]
terminal plasma half-life ([3]; biphasic elimination, Coukell et al. 1996): approximately 12 hours

Second part, the compound after the results:

solubility [1, 5]: > 100000 µg/mL | solubility [1, 6]: 8000 µg/mL (≈ 21.7 mM) | solubility [1, 7]: 2000 µg/mL (≈ 5.41 mM) | solubility [1, 8]: 3900 µg/mL (≈ 10.6 mM) | solubility [1, 9]: > 100000 µg/mL | solubility [1, 10]: > 100000 µg/mL | solubility [1, 11]: 2000 µg/mL (≈ 5.41 mM) | maximum mass change in water sorption isotherms [2]: 0.35% | Change Mass ([2]; 19.077 mg, relative humidity 0 %, rising steps): 0.00 wt % | Change Mass ([2]; relative humidity 1 %, falling steps): −0.01 wt % | Change Mass ([2]; relative humidity 10 %, falling steps): 0.01 wt % | Change Mass ([2]; relative humidity 10 %, rising steps): 0.03 wt % | Change Mass ([2]; relative humidity 20 %, falling steps): 0.03 wt % | Change Mass ([2]; relative humidity 20 %, rising steps): 0.05 wt % | Change Mass ([2]; relative humidity 30 %, falling steps): 0.05 wt % | Change Mass ([2]; relative humidity 30 %, rising steps): 0.07 wt % | Change Mass ([2]; relative humidity 40 %, falling steps): 0.07 wt % | Change Mass ([2]; relative humidity 40 %, rising steps): 0.09 wt % | Change Mass ([2]; relative humidity 50 %, falling steps): 0.08 wt % | Change Mass ([2]; relative humidity 50 %, rising steps): 0.11 wt % | Change Mass ([2]; relative humidity 60 %, falling steps): 0.11 wt % | Change Mass ([2]; relative humidity 60 %, rising steps): 0.13 wt % | Change Mass ([2]; relative humidity 70 %, falling steps): 0.14 wt % | Change Mass ([2]; relative humidity 70 %, rising steps): 0.16 wt % | Change Mass ([2]; relative humidity 75 %, falling steps): 0.16 wt % | Change Mass ([2]; relative humidity 75 %, rising steps): 0.18 wt % | Change Mass ([2]; relative humidity 80 %, falling steps): 0.17 wt % | Change Mass ([2]; relative humidity 80 %, rising steps): 0.19 wt % | Change Mass ([2]; relative humidity 90 %, falling steps): 0.28 wt % | Change Mass ([2]; relative humidity 90 %, rising steps): 0.25 wt % | Change Mass ([2]; relative humidity 95 %, first step at 95 %): 0.34 wt % | Change Mass ([2]; relative humidity 95 %, second step at 95 %): 0.35 wt %
SMILES: CCN1CCC[C@H]1CNC(=O)c1cc(S(=O)(=O)CC)c(N)cc1OC [(S)-amisulpride Form A′, S-4-Amino-N-[(1-ethyl-2-pyrrolidinyl)methyl]-5-(ethylsulfonyl)-2-methoxybenzamide]

time frame in which plasma concentrations peaked [4]: approximately 3 hour
SMILES: CCN1CCC[C@H]1CNC(=O)c1cc(S(=O)(=O)CC)c(N)cc1OC [(S)-amisulpride, S-4-Amino-N-[(1-ethyl-2-pyrrolidinyl)methyl]-5-(ethylsulfonyl)-2-methoxybenzamide]

— patent publication US10369134B2, “Nonracemic mixtures and uses thereof” (Sunovion Pharmaceuticals Inc., priority 2017, dated 2019)
